The record followed here is ChEMBL document CHEMBL5230136, “A review: Biologically active 3,4-heterocycle-fused coumarins” (Eur J Med Chem, 2021).

For assay [1], the system named is Staphylococcus aureus. Briefly: Antibacterial activity against Staphylococcus aureus assessed as zone of inhibition at 20 mg/ml. The format is functional. The following applies: read-out: IZ.
For assay [2], the system named is Bacillus cereus. Briefly: Antibacterial activity against Bacillus cereus assessed as zone of inhibition at 20 mg/ml. The format is functional. The following applies: read-out: IZ.
Assay [3] has as its system Escherichia coli. Briefly: Antibacterial activity against Escherichia coli assessed as zone of inhibition at 20 mg/ml. The following applies: read-out: IZ. Type of assay: functional.
Assay [4] concerns Pseudomonas aeruginosa. Nature of the assay: Antibacterial activity against Pseudomonas aeruginosa assessed as zone of inhibition at 20 mg/ml. The format is functional. To be noted: read-out: IZ.
The subject of assay [5] is Serratia marcescens. Nature of the assay: Antibacterial activity against Serratia marcescens assessed as zone of inhibition at 20 mg/ml. Type of assay: functional. The following applies: read-out: IZ.
The subject of assay [6] is Micrococcus luteus. Nature of the assay: Antibacterial activity against Micrococcus luteus assessed as zone of inhibition at 20 mg/ml. To be noted: read-out: IZ. The format is functional.
The subject of assay [7] is Candida albicans. Briefly: Antifungal activity against Candida albicans assessed as zone of inhibition at 20 mg/ml. Type of assay: functional. The following applies: read-out: IZ.
Assay [8] deals with Trichophyton rubrum. Briefly: Antifungal activity against Trichophyton rubrum assessed as zone of inhibition at 20 mg/ml. To be noted: read-out: IZ. The format is functional.
The subject of assay [9] is Aspergillus flavus. Briefly: Antifungal activity against Aspergillus flavus assessed as zone of inhibition at 20 mg/ml. The format is functional. To be noted: read-out: IZ.
Assay [10] concerns Fusarium oxysporum. Briefly: Antifungal activity against Fusarium oxysporum assessed as zone of inhibition at 20 mg/ml. The format is functional. The following applies: read-out: IZ.
The test system of assay [11] is Scopulariopsis. Briefly: Antifungal activity against Scopulariopsis assessed as zone of inhibition at 20 mg/ml. Type of assay: functional. To be noted: read-out: IZ.
Assay [12] relates to Geotrichum candidum. Nature of the assay: Antifungal activity against Geotrichum candidum assessed as zone of inhibition at 20 mg/ml. The format is functional. To be noted: read-out: IZ.
The test system of assay [13] is MCF7. Briefly: Cytotoxicity against human MCF7 cells […] by MTT reduction assay. Type of assay: functional, cell-based.
The test system of assay [14] is HeLa. Nature of the assay: cells. To be noted: Homo sapiens.
Description: Cytotoxicity against human HeLa cells at 50 uM by MTT reduction assay
The test system of assay [15] is K562. Briefly: cells. To be noted: Homo sapiens.
Description: Cytotoxicity against human K562 cells at 50 uM by MTT reduction assay
For assay [16], the system named is LS180. Nature of the assay: cells. To be noted: Homo sapiens.
Description: Cytotoxicity against human LS180 cells at 50 uM by MTT reduction assay
The subject of assay [17] is Staphylococcus aureus. Briefly: Antibacterial activity against Staphylococcus aureus assessed as zone of inhibition at 100 ug/ml. The format is functional. The following applies: read-out: IZ.
Assay [18] relates to Bacillus subtilis. Nature of the assay: Antibacterial activity against Bacillus subtilis assessed as zone of inhibition at 100 ug/ml. Type of assay: functional. To be noted: read-out: IZ.
For assay [19], the system named is Escherichia coli. Nature of the assay: Antibacterial activity against Escherichia coli assessed as zone of inhibition at 100 ug/ml. The following applies: read-out: IZ. The format is functional.
Assay [20] relates to Salmonella typhimurium. Briefly: Antibacterial activity against Salmonella typhimurium DT104 assessed as zone of inhibition at 100 ug/ml. Type of assay: functional, Salmonella enterica subsp. enterica serovar Typhimurium. To be noted: Salmonella enterica, read-out: IZ.

On to `CCOC(=O)c1sc2c(c1NC(=O)CNc1ccc(S(=O)(=O)NN=N)cc1)c(=O)oc1ccccc12`, for which the zone of inhibition at 20000 µg/mL in assay [1] was 10 mm; in assay [2], 0 mm; in assay [3] it was 9 mm; in assay [4], 9 mm; in assay [5], 0 mm; in [6] it was 0 mm. Besides, the zone of inhibition at 20000 µg/mL in assay [7] was determined as 13 mm; in [8] it was 0 mm; in assay [9], 0 mm; in [10], 0 mm; in assay [11] it was 0 mm; in [12] it was 0 mm.

On to `COc1ccccc1-c1c2c(nc3c1c(=O)oc1ccccc13)CCCC2=O`, for which the half-inhibitory concentration (IC50) in assay [13], in assay [14], in assay [15] and in assay [16] was above 100 µM each time.

For the compound `O=C1CCCc2nc3c(c(-c4ccc([N+](=O)[O-])cc4)c21)c(=O)oc1ccccc13`, the IC50 is above 100 µM in [13], 88.2 µM in [14], 43.8 µM in assay [15] and above 100 µM in [16].

In the case of `O=C1CCCc2nc3c(c(-c4cccc(Br)c4)c21)c(=O)oc1ccccc13`, the concentration for half-maximal inhibition (IC50) is 31.4 µM in assay [13], 83.6 µM in assay [14], 38.8 µM in [15] and above 100 µM in assay [16].

Regarding `Cc1ccc2c(c1)oc(=O)c1c(-c3cn(-c4ccccc4)nc3-c3ccccc3)cc(-c3c(O)c(Cl)cc(Br)c3O)nc12`, the zone of inhibition at 100 µg/mL in assay [17] was found to be 18 mm; in [18] it was 16 mm; in assay [19], 19 mm; in assay [20], 12 mm.

Consider `Cc1ccc2c(c1)oc(=O)c1c(-c3cn(-c4ccccc4)nc3-c3ccccc3)cc(-c3c(O)c(C)cc(I)c3O)nc12`, for which the zone of inhibition at 100 µg/mL in assay [17] was found to be 15 mm; in assay [18], 18 mm; in assay [19], 18 mm; in assay [20], 12 mm.

Turning to `Cc1ccc(-c2c3c(nc4c2c(=O)oc2ccccc24)CCCC3=O)cc1`, the IC50 was 66.7 µM in assay [13], 43.6 µM in [14], 56.2 µM in assay [15] and above 100 µM in [16].

As to `Cc1ccc2c(c1)oc(=O)c1c(-c3cn(-c4ccccc4)nc3-c3ccccc3)cc(-c3c(O)ccc(Cl)c3O)nc12`, the zone of inhibition at 100 µg/mL stood at 19 mm in [17], 18 mm in assay [18], 21 mm in [19] and 20 mm in assay [20].

Regarding `Cc1ccc2c(c1)oc(=O)c1c(-c3cn(-c4ccccc4)nc3-c3ccccc3)cc(-c3c(O)c(I)cc(Cl)c3Cl)nc12`, the zone of inhibition at 100 µg/mL in assay [17] stood at 16 mm; in assay [18], 8 mm; in assay [19] it was 18 mm; in assay [20] it was 14 mm.

For the compound `Cc1ccc2c(c1)oc(=O)c1c(-c3cn(-c4ccccc4)nc3-c3ccccc3)cc(-c3c(O)c(I)c(C)c(Cl)c3Cl)nc12`, the zone of inhibition at 100 µg/mL in assay [17] was 15 mm; in [18] it was 12 mm; in assay [19] it was 9 mm; in assay [20], 12 mm.

On to `Cc1ccc2c(c1)oc(=O)c1c(-c3cn(-c4ccccc4)nc3-c3ccccc3)cc(-c3c(O)ccc(Cl)c3Cl)nc12`, for which the zone of inhibition at 100 µg/mL amounted to 8 mm in assay [17], 10 mm in assay [18], 12 mm in [19] and 10 mm in assay [20].

Take `CCOC(=O)c1sc2c(c1NC(=O)CCl)c(=O)oc1ccccc12`: the zone of inhibition at 20000 µg/mL worked out at 8 mm in [1]; 0 mm in assay [2]; 0 mm in assay [3]; 0 mm in assay [4]; 0 mm in [5]; 0 mm in [6]. Moreover, the zone of inhibition at 20000 µg/mL was 10 mm in assay [7]; 0 mm in [8]; 0 mm in assay [9]; 0 mm in [10]; 0 mm in [11]; 0 mm in assay [12].

For the compound `COc1cccc(-c2c3c(nc4c2c(=O)oc2ccccc24)CCCC3=O)c1`, the IC50 in assay [13], in assay [14], in [15] and in assay [16] was above 100 µM throughout.

Consider `CCOC(=O)c1sc2c(c1NC(=O)CN1CCOCC1)c(=O)oc1ccccc12`, for which the zone of inhibition at 20000 µg/mL in [1] worked out at 0 mm; in assay [2], 0 mm; in assay [3], 0 mm; in [4], 9 mm; in assay [5] it was 0 mm; in assay [6], 0 mm. Also, the zone of inhibition at 20000 µg/mL in [7], in assay [8], in assay [9], in assay [10], in [11] and in [12] was 0 mm in each case.

In the case of `O=C1CCCc2nc3c(c(-c4ccccc4Cl)c21)c(=O)oc1ccccc13`, the IC50 in assay [13], in [14], in [15] and in assay [16] was above 100 µM in each case.

Regarding `Cc1ccc2c(c1)oc(=O)c1c(-c3cn(-c4ccccc4)nc3-c3ccccc3)cc(-c3c(O)c(Cl)c(O)c(Cl)c3Cl)nc12`, the zone of inhibition at 20000 µg/mL in assay [1] and in [3] was 22 mm throughout. For the same compound, the zone of inhibition at 100 µg/mL was determined as 18 mm in [17], 22 mm in assay [18], 22 mm in assay [19] and 20 mm in [20].

As to `O=C1CCCc2nc3c(c(-c4ccc(Cl)cc4)c21)c(=O)oc1ccccc13`, the half-maximal inhibitory concentration (IC50) is 41.8 µM in [13], 37.7 µM in assay [14], 37.5 µM in assay [15] and above 100 µM in [16].

Regarding `Cc1ccc2c(c1)oc(=O)c1c(-c3cn(-c4ccccc4)nc3-c3ccccc3)cc(-c3c(O)c(Br)cc(Cl)c3Cl)nc12`, the zone of inhibition at 100 µg/mL in [17] was 21 mm; in assay [18] it was 20 mm; in assay [19] it was 19 mm; in [20], 22 mm.

Consider `Cc1ccc2c(c1)oc(=O)c1c(-c3cn(-c4ccccc4)nc3-c3ccccc3)cc(-c3c(O)cc(O)cc3Cl)nc12`, for which the zone of inhibition at 100 µg/mL in [17] came out at 10 mm; in [18] it was 14 mm; in [19] it was 19 mm; in assay [20], 12 mm.

Consider `O=C1CCCc2nc3c(c(-c4cccc(Cl)c4)c21)c(=O)oc1ccccc13`, for which the 50% inhibitory concentration (IC50) is 71.7 µM in assay [13], above 100 µM in assay [14], 50.7 µM in assay [15] and above 100 µM in assay [16].

`Cc1ccc2c(c1)oc(=O)c1c(-c3cn(-c4ccccc4)nc3-c3ccccc3)cc(-c3ccc(Cl)cc3Cl)nc12`: the zone of inhibition at 100 µg/mL in assay [17] was determined as 16 mm; in assay [18], 19 mm; in assay [19] it was 21 mm; in assay [20] it was 19 mm.

Take `Cc1cccc(-c2c3c(nc4c2c(=O)oc2ccccc24)CCCC3=O)c1`: the figures for the half-maximal inhibitory concentration (IC50) in assay [14], in assay [15] and in assay [16] were above 100 µM, 57.4 µM and above 100 µM, respectively.

Consider `COc1ccc(-c2c3c(nc4c2c(=O)oc2ccccc24)CCCC3=O)cc1`, for which the IC50 in [13] is 62 µM; in assay [14], 98.5 µM; in assay [15], above 100 µM; in [16], above 100 µM.

As for `Cc1ccc2c(c1)oc(=O)c1c(-c3cn(-c4ccccc4)nc3-c3ccccc3)cc(-c3c(O)cc(C)c(Cl)c3Cl)nc12`, the zone of inhibition at 100 µg/mL worked out at 7 mm in assay [17], 14 mm in assay [18], 8 mm in [19] and 10 mm in assay [20].

For the compound `Cc1ccc2c(c1)oc(=O)c1c(-c3cn(-c4ccccc4)nc3-c3ccccc3)cc(-c3c(O)c(Cl)cc(I)c3O)nc12`, the zone of inhibition at 100 µg/mL in [17] worked out at 19 mm; in [18], 22 mm; in [19], 20 mm; in assay [20] it was 16 mm.

With `O=C1CCCc2nc3c(c(-c4ccc(Br)cc4)c21)c(=O)oc1ccccc13`, the half-maximal inhibitory concentration (IC50) was 46.2 µM in assay [13], 47.3 µM in [14], 47.5 µM in [15] and above 100 µM in [16].

Turning to `Cc1ccccc1-c1c2c(nc3c1c(=O)oc1ccccc13)CCCC2=O`, the IC50 in assay [13], in [14], in assay [15] and in [16] was above 100 µM throughout.

For `CC1(C)S[C@@H]2[C@H](NC(=O)Cc3ccccc3)C(=O)N2[C@H]1C(=O)O` [PENICILLIN G], the zone of inhibition at 100 µg/mL is 24 mm in assay [17], 24 mm in assay [18], 22 mm in assay [19] and 22 mm in assay [20].
